Patent publication EP4755889A1, “COMPOUND FOR DETECTING AMYLOID-BETA OLIGOMER AND METHOD FOR DIAGNOSING DEGENERATIVE BRAIN DISEASE USING SAME” (Amyloid Solution Inc., priority 2024, dated 2025)

How the values were obtained:
Aβn-(n+5) (n = 1 to 37) = assay: Mapping Amyloid Plate (MAP): binding to immobilized Aβ1-42 hexamer fragments; conditions: MAP treated with IK15j for 24 hours
Procedure: A Mapping Amyloid Plate (MAP) for investigating the target site of the compound of the present disclosure on Aβ1-42 fragments or Aβ1-42 oligomers was prepared with reference to Korean Patent Application No. 10-2023-0133625, which is incorporated herein by reference in its entirety.
Briefly, to remove the bovine serum albumin coating from the plate, each well of the plate was washed three times with 200 µL of wash buffer (0.1 M sodium phosphate, 0.15 M sodium chloride, 0.05 % Tween-20, pH 7.2). Full-length and fragmented peptides of Aβ1-42 were individually dissolved in DMSO to prepare […] stock solutions, which were then diluted with binding buffer (0.1 M sodium phosphate, 0.15 M sodium chloride, 10 mM EDTA, pH 7.2) to prepare 50 µg/mL peptide solutions (5 % DMSO). 100 µL of the peptide solution was added to each well and allowed to react with the maleimide at room temperature overnight. After peptide immobilization, unbound peptides were removed by washing three times with 200 µL of wash buffer. […]
Two conditions were prepared to confirm whether the compound of the present disclosure targets the structure or the sequence of Aβ oligomers. […] The fluorescence intensity of both plates was measured using a microplate reader (λex = 285 nm/λem = 475 nm). […]

Aβ1-42 oligomers [1] = molecular target: T1, Aβ1-42 oligomers (Homo sapiens, UniProt P05067); assay: Co-incubation with Aβ1-42 oligomers and albumin; format: binding; conditions: co-incubated with Aβ1-42 oligomers and albumin
T1 construct: Aβ1-42 peptide was aggregated at 37 °C for 8 hours
T1 sequence (P05067 672-713): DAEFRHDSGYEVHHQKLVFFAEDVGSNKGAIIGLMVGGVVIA
Procedure: (§1) Full-length Aβ1-42 peptide was immobilized on a maleimide-activated microplate. Then, the plate was treated with additional Aβ1-42 peptide (10 µM) at 37°C for 8 hours. After peptide immobilization, unbound peptides were removed by washing three times with 200 µL of wash buffer. To form albumin-Aβ oligomer complexes, the plate was treated with albumin (10 µM, Sigma-Aldrich, USA) at room temperature for 24 hours, and unbound residues were removed by washing three times with 200 µL of wash buffer. The control Aβ oligomer wells were not treated with albumin. Each well was treated with the compound of the present disclosure (100 µM), and the signal of each sample was detected using a microplate reader (λex = 285 nm / λem = 475 nm).
In addition, to investigate whether albumin interferes with the binding between IK15j and Aβ1-42 oligomers, IK15j was co-incubated with Aβ1-42 oligomers and albumin as described in Reference Example 11, and the fluorescence signal of each sample was analyzed.

Aβ1-42 oligomers [2] = molecular target: T1, Aβ1-42 oligomers; assay: Selectivity for blood proteins: Aβ1-42 oligomers; format: binding; conditions: IK15j (25 µM); compared with albumin and fibrinogen
Procedure: Aβ1-42 peptide was aggregated at 37 °C for 8 hours, and 25 µM of Aβ1-42 oligomers, albumin (Sigma-Aldrich, USA), and fibrinogen (Sigma-Aldrich, USA) were seeded into a black microplate. Each sample was treated with IK15j (100 µM) for 8 hours at room temperature. The signal of each sample was detected using a microplate reader (λex = 285 nm / λem = 475 nm).
Excluding water, the solid components of plasma consist of coagulation factors and plasma proteins. Albumin is the most abundant protein in plasma, and fibrinogen is a major coagulation factor in plasma. Considering the possibility that fibrinogen or albumin might interact with AD diagnostic tools and interfere with compound selectivity, IK15j (25 µM) was incubated with Aβ1-42, albumin, or fibrinogen as described in Reference Example 10, and the fluorescence signal of each sample was measured to evaluate the selectivity of the compound of the present disclosure against these proteins.

Aβ oligomers = molecular target: T2, Aβ oligomers (Homo sapiens, UniProt P05067); assay: Detection of Aβ oligomers spiked into human plasma; format: binding; conditions: IK15j (100 µM) for 8 hours
T2 construct: Aβ1-42 peptide was aggregated at 37 °C for 8 hours
T2 sequence (P05067 672-713): as above
Procedure: Aβ1-42 peptide (1,000, 100, 10, 1, 0.1, 0.01, and 0.001 pg/mL) was aggregated at 37 °C for 8 hours and added to human plasma (Sigma-Aldrich, USA). Then, each plasma sample was treated with the compound of the present disclosure (100 µM) for 8 hours at room temperature. The signal of each sample was detected using a microplate reader (λex = 285 nm / λem = 475 nm).
To investigate whether the compound of the present disclosure interacts with Aβ oligomers in plasma, Aβ oligomers were spiked into human plasma (at 100, 10, 1, 0.1, 0.01, 0.001, and 0 pg/mL) and treated with IK15j (100 µM) for 8 hours, as described in Reference Example 9.

[3] = molecular target: T3, Aβ oligomer-albumin complex (Homo sapiens, UniProt P05067); assay: Plate-immobilized Aβ oligomer-albumin complexes versus Aβ oligomers; format: binding; conditions: immobilized on a plate; IK15j (25 µM)
T3 construct: purchased Sigma-Aldrich (albumin)
T3 sequence (P05067 672-713, one chain of several): as the sequence (P05067 672-713) above
Procedure: as §1
Subsequently, both wells were treated with IK15j (25 µM), and the signals were compared (FIG. 9D).

In the case of Cc1ccc2c(c1)c(-c1ccccc1)cn1c(C)cc(C#N)c21 [IK15j, 3,8-dimethyl-6-phenylpyrrolo[2,1-a]isoquinoline-1-carbonitrile], the “signal in Aβ fragments compared to Aβ1-42” value (Aβn-(n+5) (n = 1 to 37)) is reported as “increase in IK15j signal was observed in 10 Aβ fragments (Aβ14-19 to Aβ23-28)”, the “signal across all Aβ fragments” value (Aβn-(n+5) (n = 1 to 37); heatmap) is reported as “relatively low across all fragments” and the “signal of Aβ1-42 oligomer and albumin sample compared to Aβ1-42 oligomer-only sample” value (Aβ1-42 oligomers [1]) is reported as “decreased compared to the Aβ1-42 oligomer-only sample, the difference was not significant”. For the same molecule, the “fluorescence intensity in the presence of Aβ1-42 oligomers compared to other proteins” value (Aβ1-42 oligomers [2]) was “increased markedly”, the “signal in spiked human plasma compared to blank human plasma (0 pg/mL)” value (Aβ oligomers; 1 pg/mL Aβ oligomers spiked) was “increased significantly” and the “increase in fluorescence intensity compared to the control” value (Aβ oligomers; 10-100 pg/mL Aβ spiked human plasma samples) was 52%. For the same molecule, the “fluorescence intensity, Aβ oligomer-albumin complex versus Aβ oligomers alone” value [3] was “no significant difference in fluorescence intensity”.
